Data as given in patent US9550821B2, “Modulation of ghrelin levels and ghrelin/unacylated ghrelin ratio using unacylated ghrelin” (ALIZÉ PHARMA SAS, priority 2012, dated 2017).
Where no end group is shown, it is not given here.

Assays:
[1] = Safety evaluation during overnight UAG infusion in T2DM subjects; assay type: in vivo, human
Method: (§1) A continuous overnight (15 hours) infusion of two doses of UAG (3 μg UAG/kg/hr and 10 μg UAG/kg/hr) versus placebo in a cross-over model on the AG concentrations was performed in eight overweight subjects with type 2 diabetes. FIG. 1 depicts a schematic representation of the study protocol. Glucose and insulin responses to a standard breakfast meal (SBM) in the subjects and reasonable metabolic control were assessed.
Standard breakfast meal (SBM) consisted of: • 3 slices wheat bread; • 3 portions of margarine; • 2 slices of cheese (48% fat); • 1 portion of jam; • 1 cup of whole milk; and • 1 boiled egg; for a total of 714 kcal (17% proteins; 46% fat; and 37% carbohydrates). […] At each of the 3 visits, the following safety parameters were assessed: hemoglobin, hematocrit, platelet count, WBC count, RBC count, and differential and were determined using Sysmex XE 2100, Firma Sysmex, Ecustraat 11, 4879 NP Etten-Leur. AST, ALT, alkaline phosphatase, total bilirubin, creatine phophokinase (CPK), lactate dehydrogenase (LDH), creatinine, urea, amylase, lipase, uric acid, glucose, cholesterol, LDL, HDL, triglycerides, sodium, potassium, calcium, chloride, protein and albumin are determined using the Hitachi Modular P800, Roche Transistorstraat 41, 1332 CK Almere. […] AG and UAG levels were assessed before the start of the overnight infusion, 10 minutes before the start and 30 minutes after the SBM. […]

[2] = Overnight (15 hours) UAG infusion in T2DM subjects: serum UAG levels by MSD ELISA; assay type: in vivo, human; details: placebo 105.9±31.4
Method: as §1
Single-center, investigator initiated, double blind and placebo controlled randomized study. During the first visit medical history, medication use and vital signs of subjects were checked. Blood samples were also taken for chemistry and hematology analysis. […]
Infusions were performed at the local clinical research unit for 15 hours from 9 pm to […]. […] The dose was calculated based on the subject's weight. […]
Standard breakfast meal (SBM) consisted of: • 3 slices wheat bread; • 3 portions of margarine; • 2 slices of cheese (48% fat); • 1 portion of jam; • 1 cup of whole milk; and • 1 boiled egg; for a total of 714 kcal (17% proteins; 46% fat; and 37% carbohydrates). […] At each of the 3 visits, the following safety parameters were assessed: hemoglobin, hematocrit, platelet count, WBC count, RBC count, and differential and were determined using Sysmex XE 2100, Firma Sysmex, Ecustraat 11, 4879 NP Etten-Leur. […]

[3] = system: glucose, insulin and lipid metabolisms; details: cited from earlier work; for retention of UAG full length activity on glucose, insulin and lipid metabolisms: from U.S. Pat. Nos. 8,222,217 and 8,318,664; for smallest UAG fragment retaining UAG biological activity: from U.S. Pat. Nos. 8,222,217, 8,318,664 and WO/2008/145749
[4] = system: AG-induced food intake; test: AG-induced food intake in rats; assay type: in vivo, Sprague-Dawley rats; details: rat, i.p. 42 μg/kg together with AG 13 μg/kg; food intake at 30 min, 1 h, 2 h
Method: With respect to the experimental data presented in FIG. 8, Sprague-Dawley rats of 7 weeks of age, weighing between 275 g and 300 g, were fed a pellet diet ad libitum and were singly housed in plastic cage. The experiment was performed at 2.5 h after the onset of the light cycle in freely fed rats. The rates were i.p. injected simultaneously with vehicle plus vehicle, vehicle+AG (13 μg/kg) or cyclised UAG (6-13) (SEQ ID NO: 25) (42 μg/kg)+AG (13 μg/kg). Immediately after the completion of the i.p. injection in rats, the night-ad-libitum food was removed and replaced by 2 pellets for each animal, previously weighed, placed into the top of the cage. Food intake was calculated as the difference between the food weight before and after the feeding period at each time interval (30 min, 1 h, and 2 h). Cumulative food intake was calculated by summating the values of the different time periods.

CC(C)C[C@H](NC(=O)[C@H](CCCCN)NC(=O)[C@H](C)NC(=O)[C@@H]1CCCN1C(=O)[C@@H]1CCCN1C(=O)[C@H](CCCCN)NC(=O)[C@H](CCCCN)NC(=O)[C@H](CO)NC(=O)[C@H](CCC(=O)O)NC(=O)[C@H](CCCCN)NC(=O)[C@H](CCCNC(=N)N)NC(=O)[C@H](CCC(N)=O)NC(=O)[C@H](CCC(N)=O)NC(=O)[C@@H](NC(=O)[C@H](CCCNC(=N)N)NC(=O)[C@H](CCC(N)=O)NC(=O)[C@H](Cc1cnc[nH]1)NC(=O)[C@H](CCC(=O)O)NC(=O)[C@@H]1CCCN1C(=O)[C@H](CO)NC(=O)[C@H](CC(C)C)NC(=O)[C@H](Cc1ccccc1)NC(=O)[C@H](CO)NC(=O)[C@H](CO)NC(=O)CN)C(C)C)C(=O)N[C@@H](CCC(N)=O)C(=O)N1CCC[C@H]1C(=O)N[C@@H](CCCNC(=N)N)C(=O)O [UAG]
laboratory evaluations ([1]; 3 and 10 μg UAG/kg/hr overnight infusion): no significant changes in chemistry or parameters
side effects reported by subjects ([1]; 3 and 10 μg UAG/kg/hr overnight infusion vs placebo): did not report more side effects than placebo
serum UAG levels before start of the SBM (mean±SD) ([2]; 3 mcg/kg·hr UAG overnight infusion): 10998 ± 2623 pg/mL
serum UAG levels before start of the SBM (mean±SD) ([2]; 10 mcg/kg·hr UAG overnight infusion): 12085 ± 1616 pg/mL

EHQRVQ [UAG (8-13)]
retention of UAG full length activity on glucose, insulin and lipid metabolisms [3]: retain the activity of UAG full length

Glu-His-Gln-Arg (EHQR; listed as Homo sapiens) [UAG (8-11)]
smallest UAG fragment retaining UAG biological activity [3]: smallest UAG fragment to retain UAG activities
retention of UAG full length activity on glucose, insulin and lipid metabolisms [3]: retain the activity of UAG full length

Glu-His-Gln-Arg-Val (EHQRV; listed as Homo sapiens) [UAG (8-12)]
retention of UAG full length activity on glucose, insulin and lipid metabolisms [3]: retain the activity of UAG full length

His-Gln-Arg (HQR; listed as Homo sapiens) [UAG (9-11)]
retention of UAG full length activity on glucose, insulin and lipid metabolisms [3]: retain the activity of UAG full length

His-Gln-Arg-Val (HQRV; listed as Homo sapiens) [UAG (9-12)]
smallest UAG fragment retaining UAG biological activity [3]: smallest UAG fragment to retain the biological activity of UAG
retention of UAG full length activity on glucose, insulin and lipid metabolisms [3]: retain the activity of UAG full length

SPEHQRVQ [UAG (6-13)]
retention of UAG full length activity on glucose, insulin and lipid metabolisms [3]: retain the activity of UAG full length

Ser-Pro-Glu-His-Gln-Arg-Val-Gln (cycl) (SPEHQRVQ; cyclised; (1)..(8) Cyclic; listed as Homo sapiens) [cyclic UAG (6-13)]
effect on AG-induced food intake (orexigenic effect) [4]: able to counteract the orexigenic effects induced by AG
